For 58 molecules, activity change, negative = inhibition and AC50 results are on record in PubChem BioAssay AID540354 (Broad Institute, 2011).

Molecules are shown by their SMILES. Activity calls are given as the source filed them.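 Rule for the calls: active = compounds lowering labeled HDL uptake signal, with AC50 at most ten times the top tested dose; inconclusive = flat partial inhibition between 30 and 70% or unreliable fit; inactive = the rest.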

System in one experiment: not listed separately
Nature of the experiment: blockers of fluorescent HDL lipid uptake via SR-BI – ldlA[mSR-BI] CHO cells, dry powder samples, dose response (AID 540354). The conditions noted are these: ldlA[mSR-BI] CHO cells, DiI-HDL uptake fluorescence, 3 h; at 35 µM (top of the series).
With `C[C@H](CO)N1C[C@H](C)[C@H](CN(C)S(=O)(=O)c2ccc(F)cc2)Oc2ccc(NS(C)(=O)=O)cc2C1=O`, the activity change, negative = inhibition is -1.08% (inactive). As for `C[C@H](CO)N1C[C@H](C)[C@H](CN(C)S(=O)(=O)c2ccc(F)cc2)Oc2ccc(NC(=O)Cc3ccccc3)cc2C1=O`, the activity change, negative = inhibition is -3.31% (inactive).

The next experiment has as its system ldlA[mSR-BI] CHO cells, DiI-HDL uptake fluorescence, 3 h. The description is as above.
Settings: not given
One may read the AC50 as the midpoint of the concentration-response curve, whichever way the signal moves. In the case of `O=C(Nc1cc(Cl)ccc1Cl)c1cc(Cl)ccc1NS(=O)(=O)c1ccc(Cl)c([N+](=O)[O-])c1`, the AC50 is 444 nM.

Regarding `C[C@H](CO)N1C[C@H](C)[C@@H](CN(C)S(=O)(=O)c2ccc(F)cc2)Oc2ccc(NC(=O)Cc3cn(C)c4ccccc34)cc2C1=O`, the AC50 is 38500 nM.

Regarding `C[C@H]1CN([C@@H](C)CO)C(=O)c2cccc(NC(=O)Nc3ccccc3)c2O[C@@H]1CN(C)Cc1ccccc1`, the AC50 is 13400 nM. Regarding `CC(C)NC(=O)Nc1cccc2c1O[C@H](CN(C)Cc1ccc(Cl)c(Cl)c1)[C@@H](C)CN([C@@H](C)CO)C2=O`, the AC50 was 1050 nM. For `CCc1cc2cc3c(cc2nc1SCC(=O)OC(C)C)OCO3`, the AC50 is 79 nM. Consider `C[C@@H]1CN([C@H](C)CO)C(=O)c2cc(NC(=O)Cc3cn(C)c4ccccc34)ccc2O[C@H]1CN(C)S(=O)(=O)c1ccc(Cl)cc1`, for which the AC50 was 454 nM.

Turning to `CC(C)OCCCNC(=O)c1ccc(C2SCC(=O)N2Cc2ccco2)cc1` (stereo not drawn), the AC50 was 1380 nM. For `C[C@H]1CN([C@@H](C)CO)C(=O)c2cccc(NS(C)(=O)=O)c2O[C@@H]1CN(C)Cc1ccc(Cl)c(Cl)c1`, the AC50 was 19400 nM.

As for `C[C@@H]1CN([C@H](C)CO)C(=O)c2cc(NC(=O)Cc3cn(C)c4ccccc34)ccc2O[C@H]1CN(C)C(=O)Nc1ccc(F)cc1`, the AC50 was 3290 nM. Take `Cc1cc(C)n(CC(=O)NC2CCCc3c2cnn3-c2ccc(C)c(C)c2)n1` (stereo not drawn): the AC50 is 376 nM. With `COc1ccc(OC)c(CCNC(=O)c2ccc3c(c2)N(Cc2ccc(F)cc2)CCS3)c1`, the AC50 is 559 nM. On the same count and under the same terms, under `Cc1ccc2oc(-c3cccc(NC(=O)c4cc(-n5cnnc5)ccc4Cl)c3)nc2c1` stands 593 nM; under `CCc1sc(N2C(=O)C3C4CCC(C4=C(C)C)C3C2=O)nc1-c1ccccc1` (stereo not drawn), 754 nM. Take `C[C@@H]1CN([C@H](C)CO)C(=O)c2cc(NC(=O)Cc3cn(C)c4ccccc34)ccc2O[C@H]1CN(C)S(=O)(=O)c1ccc(F)cc1`: the AC50 is 1090 nM. Consider `O=C(Nc1cc(C(F)(F)F)ccc1Cl)c1ccccc1NS(=O)(=O)c1ccc(Cl)cc1`, for which the AC50 is 1380 nM.

Consider `CCOc1ccccc1/C=C/c1onc(C)c1S(=O)(=O)N1CCC(C(=O)NC(C)(C)C)CC1`, for which the AC50 was 77 nM. Still for that read-out and setting: under `CC(C)(C)NC(=O)N1CCN(c2ncccc2C(F)(F)F)CC1` stands 292 nM. With `COC(=O)c1cn(C(=O)c2cccc3ccccc23)c2ccccc12`, the AC50 is 3610 nM. `CCOc1ccc(NC(=O)CN2CCN(CC(=O)Nc3cc(OC)cc(OC)c3)CC2)cc1`: the AC50 is below 30 nM. On to `C[C@@H]1CN([C@H](C)CO)C(=O)c2cc(NC(=O)Cc3cn(C)c4ccccc34)ccc2O[C@H]1CN(C)S(C)(=O)=O`, for which the AC50 was 18200 nM. For `O=C(Nc1ccccc1Cl)c1ccccc1NS(=O)(=O)c1ccccc1`, the half-maximal activity concentration (AC50) is 33300 nM.

`O=C(Nc1ccccc1)c1ccccc1NS(=O)(=O)c1ccc(Cl)cc1`: the AC50 was 47800 nM. For the molecule `C[C@@H]1CN([C@H](C)CO)C(=O)c2cc(NC(=O)Cc3cn(C)c4ccccc34)ccc2O[C@H]1CN(C)S(=O)(=O)c1ccccc1`, the AC50 was 1290 nM. On the same count and under the same terms, the value for `COc1ccc([C@H]2CC(=O)C=C(c3cccc4c3sc3ccccc34)C2)cc1OC` was 208 nM. For the molecule `C[C@H]1CN([C@@H](C)CO)C(=O)c2cccc(N(C)C)c2O[C@@H]1CN(C)Cc1ccc(Cl)c(Cl)c1`, the concentration at half-maximal activity (AC50) was 42400 nM. For `O=C(Nc1ccc(-c2nc3cc(NC(=O)c4ccccc4Cl)ccc3o2)cc1)c1ccccc1Cl`, the AC50 was 16 nM.

As to `Cc1ccc(-c2nnc(N3CCC(C)CC3)c3ccccc23)cc1C`, the AC50 is 197 nM. In the case of `O=C(Nc1ccc(-c2nc3cc(NC(=O)c4ccccc4[N+](=O)[O-])ccc3o2)cc1)c1ccccc1[N+](=O)[O-]`, the AC50 is below 15 nM. Turning to `Cc1cc(C)c2c(c1)NC(c1cc3c(cc1Br)OCO3)C1CC=CC21` (stereo not drawn), the AC50 was 505 nM. In the case of `N#Cc1sc2nc(C3CC3)cc(-c3ccc(Cl)cc3)c2c1N`, the AC50 was 1640 nM.

As to `CCn1c(COc2c(C)cccc2C)nnc1SCC(=O)N1CCN(c2ccccc2)CC1`, the AC50 was 2790 nM. Take `O=C(Nc1ccc(-c2nc3ccc(NC(=O)c4ccc(Cl)cc4)cc3[nH]2)cc1)c1ccc(Cl)cc1`: the AC50 is below 15 nM. For `C[C@H]1CN([C@@H](C)CO)C(=O)c2cccc(NC(=O)Nc3ccccc3)c2O[C@@H]1CN(C)Cc1ccc(Cl)c(Cl)c1`, the AC50 was 1500 nM. As to `O=C(Nc1ccc(-c2nc3cc(NC(=O)c4ccc(NC(=O)c5cccc6ccccc56)cc4)ccc3[nH]2)cc1)c1ccc(NC(=O)c2cccc3ccccc23)cc1`, the AC50 is below 15 nM. On to `O=C(Nc1cc(Cl)ccc1Cl)c1cc(Br)ccc1NS(=O)(=O)c1ccc(Cl)c([N+](=O)[O-])c1`, for which the AC50 was 426 nM. `O=C(Nc1ccc(-c2nc3ccc(NC(=O)c4ccccc4[N+](=O)[O-])cc3[nH]2)cc1)c1ccccc1[N+](=O)[O-]`: the AC50 was 251 nM. Same read-out and setting: the value for `Nc1ccc(C(=O)Nc2ccc(-c3nc4ccc(NC(=O)c5ccc(N)cc5)cc4[nH]3)cc2)cc1` was 813 nM; that for `COc1ccc(-c2nnn(CC(=O)N(C3CCCCC3)C(C)C(=O)NC3CCCC3)n2)cc1OC` (stereo not drawn) was 28 nM; that for `C[C@H](CO)N1C[C@H](C)[C@H](CN(C)S(=O)(=O)c2ccc(F)cc2)Oc2ccc(NC(=O)CCC(F)(F)F)cc2C1=O` was > 35000 nM (inactive). Turning to `C[C@@H]1CN([C@@H](C)CO)C(=O)c2cc(NC(=O)Cc3cn(C)c4ccccc34)ccc2O[C@H]1CN(C)S(=O)(=O)c1ccc(F)cc1`, the AC50 was 2190 nM.

In the case of `CCOC(=O)Nc1cccc(NC(=O)c2cc(OC)cc(OC)c2)c1`, the AC50 is 546 nM. With `Cc1cc(SC(C)C(=O)Nc2ncc(Cl)cc2Cl)nc2ccccc12` (stereo not drawn), the AC50 was 491 nM.

As to `Cc1cc(C(=O)C(C)OC(=O)C2=NNC(=O)CC2)c(C)n1-c1ccc(OC(F)F)cc1` (stereo not drawn), the AC50 is 1300 nM. For `C[C@H]1CN([C@@H](C)CO)C(=O)c2cccc(NC(=O)Nc3ccccc3)c2O[C@@H]1CN(C)C`, the half-maximal activity concentration (AC50) was 17300 nM. `O=C(Nc1ccc(Cl)cc1C(=O)c1ccc(Cl)cc1)c1cc(Br)ccc1NS(=O)(=O)c1ccc(Cl)cc1`: the AC50 was 494 nM. `CNC[C@@H]1Oc2ccc(NC(=O)Cc3cn(C)c4ccccc34)cc2C(=O)N([C@H](C)CO)C[C@H]1C`: the AC50 was 48000 nM. Regarding `O=C(Nc1ccc(-c2nc3ccc(NC(=O)c4ccccc4)cc3[nH]2)cc1)c1ccccc1`, the AC50 was 526 nM.

Consider `CC(OC(=O)c1cccc(NS(C)(=O)=O)c1)C(=O)Nc1ccc(N2CCOCC2)cc1` (stereo not drawn), for which the AC50 was 335 nM. On to `C[C@@H]1CN([C@H](C)CO)C(=O)c2cc(NC(=O)Cc3cn(C)c4ccccc34)ccc2O[C@@H]1CN(C)S(=O)(=O)c1ccc(F)cc1`, for which the AC50 is 25700 nM.

For the molecule `CCOC(=O)N1CCC(NC(=O)c2ccc3c(c2)N(Cc2ccc(F)cc2)CCS3)CC1`, the AC50 was 32 nM.

Take `Cc1ccccc1NC(=O)NCC1CCN(c2ccc(S(=O)(=O)N3CCOCC3)cc2)CC1`: the AC50 is 262 nM. As to `CCC(=O)N1CCc2cc(-c3csc(NC(=O)c4ccco4)n3)ccc21`, the AC50 is 17 nM. Take `O=C(Nc1cccc(NC(=O)c2cc([N+](=O)[O-])ccc2Cl)n1)c1cc([N+](=O)[O-])ccc1Cl`: the AC50 is 1960 nM. Consider `C[C@H]1CN([C@@H](C)CO)C(=O)c2cccc(NC(=O)Nc3ccc(F)cc3)c2O[C@@H]1CN(C)Cc1ccc(Cl)c(Cl)c1`, for which the AC50 was 1390 nM. With `C[C@H]1CN([C@@H](C)CO)C(=O)c2cccc(NC(=O)Nc3ccccc3)c2O[C@@H]1CN(C)Cc1ccc(C(F)(F)F)cc1`, the AC50 is 28000 nM. Consider `COc1cccc(-c2csc(N3CCN(C(=S)Nc4cccc(Cl)c4)CC3)n2)c1`, for which the AC50 was 1890 nM.
